Laboratory results published in patent US20250206758A1, “SUBSTITUTED BRIDGED RING INHIBITOR, PREPARATION METHOD THEREFOR AND APPLICATION THEREOF” (SUZHOU ZELGEN BIOPHARMACEUTICALS CO., LTD., priority 2022, published 2025).
Structures can show the parent of a compound that is named as a salt. Where two headings read alike, the source gives them in different places.

Tests used:
GP2D = assay: Cell proliferation inhibition, GP2D (CellTiter-Glo 3D, 7 days); type: cell-based
Protocol: (§1) • (a) Resuscitating cells in T75 cell culture flask: • (b) When the cell confluence reaches 80-90%, subculturing the cells.
(§2) The diluted test compound was added to a 384-well cell culture plate with a nanoliter pipetting system, and duplicate wells were set up. An equal volume of culture medium was added to the positive control group; and an equal volume of DMSO was added to the negative control group, then centrifugation was conducted at 1000 rpm for 1 min at room temperature.
(§3) Cells were inoculated into a) 384-well culture plate, with an equal volume of cells added to the negative control group, and only an equal volume of culture medium added to the positive control group. The plate was centrifuged at 1000 rpm for 1 min at room temperature, and the final DMSO concentration of the compound was 0.5% at last. The plate was placed in a 37° C., 5% CO2 constant temperature incubator for 7 days.
(§4) 20 μL/well of CellTiter-Glo® 3D to b) was added to 384-well cell culture plate, and the plate was shook at 320 rpm for 20 min in the dark, and incubated at room temperature in the dark for 2 hrs.
(§5) The luminescence value was read using an Envision multi-functional microplate reader.
(§6) The inhibition rate (IR) of the test compound was calculated using the following formula: IR (%)=(1−(RLU compound−RLU blank control)/(RLU meidum control−RLU blank control))*100%. The inhibition rates of different concentrations of compounds were calculated in Excel, and then the inhibition curves were plotted and the related parameters (including the minimum inhibition rate, maximum inhibition rate and IC50) were calculated using GraphPad Prism software.

AsPC-1 = assay: Cell proliferation inhibition, AsPC-1 (CellTiter-Glo 3D, 7 days); type: cell-based; conditions: AsPC-1, 7 days
Protocol: as §1, §2, §3, §4, §5, §6

Row | Structure (SMILES) | IC50 (GP2D; 168 h) [nM] | IC50 (AsPC-1; Homo sapiens, ASPC1, 168 h) [nM] | IC50 (GP2D) [nM] | IC50 (AsPC-1) [nM]
1 | C#Cc1c(F)ccc2cc(O)cc(-c3ncc4c(N5C[C@H]6CC[C@@H](C5)N6)nc(OC[C@]56CCC7(CC7)N5C[C@@H](F)C6)nc4c3F)c12 (relative stereo) [Example 12A, 4-(4-((1R,5S)-3,8-diazabicyclo[3.2.1]octan-3-yl)-8-fluoro-2-(((trans)-6′-fluorotetrahydrospiro[cyclopropan-1,3′-pyrrolizin]-7a′(5′H)-yl)methoxy)pyridino[4,3-d]pyrimidin-7-yl)-5-ethynyl-6-fluoronaphthalen-2-ol] | 3.07 | 24.8 | – | –
2 | C#Cc1c(F)ccc2cc(O)cc(-c3ncc4c(N5C[C@H]6CC[C@@H](C5)N6)nc(OC[C@@]56CCC7(CC7)N5C[C@@H](F)C6)nc4c3F)c12 (relative stereo) [Example 12B, 4-(4-((1R,5S)-3,8-diazabicyclo[3.2.1]octan-3-yl)-8-fluoro-2-(((cis)-6′-fluorotetrahydrospiro[cyclopropan-1,3′-pyrrolizin]-7a′(5′H)-yl)methoxy)pyridino[4,3-d]pyrimidin-7-yl)-5-ethynyl-6-fluoronaphthalen-2-ol] | 29.6 | 390 | – | –
3 | C#Cc1c(F)ccc2cc(O)cc(-c3ncc4c(N5C[C@H]6CC[C@@H](C5)N6)nc(OC[C@]56C[C@@H](F)CN5CC5(CC5)C6)nc4c3F)c12 [Example 10A, 4-(4-((1R,5S)-3,8-diazabicyclo[3.2.1]octan-3-yl)-8-fluoro-2-(((6′R,7a'S)-6′-fluorodihydro-1′H,3′H-spiro[cyclopropan-1,2′-pyrrolizin]-7a′(5′H)-yl)methoxy)pyridino[4,3-d]pyrimidin-7-yl)-5-ethynyl-6-fluoronaphthalen-2-ol] | 1.07 | 23.5 | – | –
4 | C#Cc1c(F)ccc2cc(O)cc(-c3ncc4c(N5C[C@H]6CC[C@@H](C5)N6)nc(OC[C@@]56C[C@@H](F)CN5CC5(CC5)C6)nc4c3F)c12 [Example 10B, 4-(4-((1R,5S)-3,8-diazabicyclo[3.2.1]octan-3-yl)-8-fluoro-2-(((6′R,7a′R)-6′-fluorodihydro-1′H,3′H-spiro[cyclopropan-1,2′-pyrrolizin]-7a′(5′H)-yl)methoxy)pyridino[4,3-d]pyrimidin-7-yl)-5-ethynyl-6-fluoronaphthalen-2-ol] | 0.51 | 17.3 | – | –
5 | C#Cc1c(F)ccc2cc(O)cc(-c3ncc4c(N5CC6CCC(C5)N6)nc(OCC56CCCN5C5(CC5)CC6)nc4c3F)c12 [Example 11, 4-(4-((1R,5S)-3,8-diazabicyclo[3.2.1]octan-3-yl)-8-fluoro-2-((tetrahydrospiro[cyclopropan-1,3′-pyrrolizin]-7a′(5′H)-yl)methoxy)pyridino[4,3d]pyrimidin-7-yl)-5-ethynyl-6-fluoronaphthalen-2-ol] | 3.01 | 38.2 | – | –
6 | C#Cc1c(F)ccc2cc(O)cc(-c3ncc4c(N5CC6CCC(C5)N6)nc(OCC56CC(F)(F)CCN5CC5(CC5)C6)nc4c3F)c12 [Example 13, 4-(4-((1R,5S)-3,8-diazabicyclo[3.2.1]octan-3-yl)-2-((7′,7′-difluorotetrahydro-3′-H-spiro[cyclopropan-1,2′-pyrrolizin]-8a′(1′H)-yl)methoxy)-8-fluoropyridino[4,3d]pyrimidin-7-yl)-5-ethynyl-6-fluoronaphthalen-2-ol trifluoroacetate] | 42.8 | 210 | – | –
7 | C#Cc1c(F)ccc2cc(O)cc(-c3ncc4c(N5C[C@H]6CC[C@@H](C5)N6)nc(OCC56CC(F)(F)CN5CC5(CC5)C6)nc4c3F)c12 (stereo partly drawn) [Example 14, 4-(4-((1R,5S)-3,8-diazabicyclo[3.2.1]octan-3-yl)-2-((6′,6′-difluorotetrahydro-3′-H-spiro[cyclopropan-1,2′-pyrrolizin]-8a′(1′H)-yl)methoxy)-8-fluoropyridino[4,3d]pyrimidin-7-yl)-5-ethynyl-6-fluoronaphthalen-2-ol] | – | – | > 100 | 921
8 | C#Cc1c(F)ccc2cc(O)cc(-c3ncc4c(N5C[C@H]6CC[C@@H](C5)N6)nc(OC[C@]56C[C@@H](F)CN5C[C@@]5(CC5(F)F)C6)nc4c3F)c12 [Example 15A, 4-(4-((1R,5S)-3,8-diazabicyclo[3.2.1]octan-3-yl)-8-fluoro-2-(((1S,6′R,7a'S)-2,2,6′-trifluorodihydro-1′H,3′H-spiro[cyclopropan-1,2′-pyrrolizin]-7a′(5′H)-yl)methoxy)pyridino[4,3-d]pyrimidin-7-yl)-5-ethynyl-6-fluoronaphthalen-2-ol] | 13.1 | 108 | – | –
9 | C#Cc1c(F)ccc2cc(O)cc(-c3ncc4c(N5C[C@H]6CC[C@@H](C5)N6)nc(OC[C@]56C[C@@H](F)CN5C[C@]5(CC5(F)F)C6)nc4c3F)c12 [Example 15B, 4-(4-((1R,5S)-3,8-diazabicyclo[3.2.1]octan-3-yl)-8-fluoro-2-(((1R,6′R,7a'S)-2,2,6′-trifluorodihydro-1′H,3′H-spiro[cyclopropan-1,2′-pyrrolizin]-7a′(5′H)-yl)methoxy)pyridino[4,3-d]pyrimidin-7-yl)-5-ethynyl-6-fluoronaphthalen-2-ol] | 7.35 | 50.8 | – | –
10 | C#Cc1c(F)ccc2cc(O)cc(-c3ncc4c(N5C[C@H]6CC[C@@H](C5)N6)nc(OC[C@@]56C[C@@H](F)CN5C[C@@]5(CC5(F)F)C6)nc4c3F)c12 [Example 15C, 4-(4-((1R,5S)-3,8-diazabicyclo[3.2.1]octan-3-yl)-8-fluoro-2-(((1S,6′R,7a′R)-2,2,6′-trifluorodihydro-1′H,3′H-spiro[cyclopropan-1,2′-pyrrolizin]-7a′(5′H)-yl)methoxy)pyridino[4,3-d]pyrimidin-7-yl)-5-ethynyl-6-fluoronaphthalen-2-ol] | 12.1 | 60.6 | – | –
11 | C#Cc1c(F)ccc2cc(O)cc(-c3ncc4c(N5C[C@H]6CC[C@@H](C5)N6)nc(OC[C@@]56C[C@@H](F)CN5C[C@]5(CC5(F)F)C6)nc4c3F)c12 [Example 15D, 4-(4-((1R,5S)-3,8-diazabicyclo[3.2.1]octan-3-yl)-8-fluoro-2-(((1R,6′R,7a′R)-2,2,6′-trifluorodihydro-1′H,3′H-spiro[cyclopropan-1,2′-pyrrolizin]-7a′(5′H)-yl)methoxy)pyridino[4,3-d]pyrimidin-7-yl)-5-ethynyl-6-fluoronaphthalen-2-ol] | 44.5 | 177 | – | –
12 | C#Cc1c(F)ccc2cc(O)cc(-c3ncc4c(N5C[C@H]6CC[C@@H](C5)N6)nc(OC[C@]56C[C@H](F)CN5C[C@@]5(CC5(F)F)C6)nc4c3F)c12 [Example 15E, 4-(4-((1R,5S)-3,8-diazabicyclo[3.2.1]octan-3-yl)-8-fluoro-2-(((1S,6'S,7a'S)-2,2,6′-trifluorodihydro-1′H,3′H-spiro[cyclopropan-1,2′-pyrrolizin]-7a′(5′H)-yl)methoxy)pyridino[4,3-d]pyrimidin-7-yl)-5-ethynyl-6-fluoronaphthalen-2-ol] | 32.2 | 314 | – | –
13 | C#Cc1c(F)ccc2cc(O)cc(-c3ncc4c(N5C[C@H]6CC[C@@H](C5)N6)nc(OC[C@]56C[C@H](F)CN5C[C@]5(CC5(F)F)C6)nc4c3F)c12 [Example 15F, 4-(4-((1R,5S)-3,8-diazabicyclo[3.2.1]octan-3-yl)-8-fluoro-2-(((1R,6'S,7a'S)-2,2,6′-trifluorodihydro-1′H,3′H-spiro[cyclopropan-1,2′-pyrrolizin]-7a′(5′H)-yl)methoxy)pyridino[4,3-d]pyrimidin-7-yl)-5-ethynyl-6-fluoronaphthalen-2-ol] | > 100 | > 1000 | – | –
